Data published in PMC11228983, “Rapid Protein–Ligand Affinity Determination by Photoinduced Hyperpolarized NMR” (Journal of the American Chemical Society, 2024).
Residues, ends and D or L forms follow the SMILES beside them.

Legend:
[1] = biological target: T1, PDZ2 domain of human tyrosine phosphatase 1E (hPTP1E) (Homo sapiens, UniProt Q12923); experiment: Competition CIDNP-KD assay with photo-CIDNP-active reporter peptide; format: binding; details: reporter WVSAV 20 μM (KD,R 170 μM), 5 μM PDZ2; 1000 ms irradiation, single scan; read-out: Competition CIDNP-KD (KD,C), Hβ of reporter WVSAV
T1 construct: the constructs used for the PDZ2 domain of human tyrosine phosphatase 1E; polyhistidine (N); made in house; host or cells: Escherichia coli BL21 (DE3)
T1 sequence (Q12923 1368-1452 limits assumed): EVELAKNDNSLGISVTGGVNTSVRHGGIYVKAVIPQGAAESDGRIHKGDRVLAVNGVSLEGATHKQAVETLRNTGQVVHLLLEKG
Description: Photo-CIDNP hyperpolarization is limited to a particular chemical space of ligands that contain heteroaromatics and heterosubstituted aromatic rings.[24],[29] To address the challenge of limited chemical space, we extend CIDNP-KD to measure the affinity of nonpolarizable ligands through competition with a polarizable reporter ligand R, whose affinity KD,R is known as depicted in Scheme 2. By adding a competitor C, the concentration and photo-CIDNP signal of the reporter ligand R* will increase, indicating the reduced amount of the complex PR* and, by extension, PR.[30]
To calculate the concentration of the ligand–protein complex in the presence of the binding competitor, the ratio of the amplification factors in the presence and absence of the competitor [drawing 6] […]
These competitor ligands lack a tryptophan residue, whereas the reporter ligands WVSAV and WQVSAV are photo-CIDNP-active due to the tryptophan tag. The hyperpolarized signal of WVSAV or WQVSAV in the presence of the PDZ2 domain was measured for increasing concentrations of the peptides QVSAV or ENEQVSAV, respectively. […]
Figure 3 KD determination of nonphoto-CIDNP-active peptides binding to a PDZ2 domain. […] The bound reporter population is plotted, calculated from the hyperpolarized tryptophan Hβ using eq 7. […] Each data point is measured with a single-scan experiment with a laser irradiation duration of (A) 1000 ms or (B) 2000 ms. […]

[2] = biological target: T1, PDZ2 domain of human tyrosine phosphatase 1E (hPTP1E); experiment: 2D [1H,15N]-HSQC chemical shift perturbation titration; format: binding; details: 30 μM 15N PDZ2, pH 6.8, 298 K
Description: We compared the affinities of the peptides obtained via CIDNP-KD with the state-of-the-art 2D [^1H, ^15N]-HSQC titration experiments measured with 30 μM PDZ2 (Figure S3).
Expression and purification were carried out as in previously reported procedures. In short, expression in Escherichia coli cells (BL21 (DE3)) and purification via Ni-NTA chromatography as the constructs used for the PDZ2 domain of human tyrosine phosphatase 1E and human PIN1 both contained N-terminal polyhistidine tags. Both protein constructs were measured in an NMR buffer consisting of 50 mM NaCl, 20 mM KPO4, and 10% D2O at pH 6.8. For the control [^1H, ^15N]-HSQC experiments, the PDZ2 domain was expressed in ^15N-enriched minimal medium.[34],[43]
All photo-CIDNP and STD-NMR experiments were recorded at 298 K on a Bruker Avance III HD 600 MHz spectrometer equipped with a cryoprobe. The [^15N, ^1H] – HSQC titration experiments of the PDZ2 domain were performed also at 298 K on another Bruker Avance IIII HD 600 MHz spectrometer equipped with a cryoprobe and SampleJet.
Peak picking was performed with the maximal peak picking tool of Mnova software. Plotting, fitting, and data analysis was done in RStudio with the workflow described above. The [^15N, ^1H]-HSQC reference affinities were analyzed with CCPNMR3.1.[62] The backbone assignment was taken from BMRB 34688.
Fig. S3: 2D [15N, 1H]-HSQC titration of peptides to hPDZ2 domain. The 2D [ 15N, 1H]-
HSQC spectra of the titration series in presence of 30 µM hPDZ2 domain and the
corresponding observed chemical shift difference of A74 plotted versus the peptide
(1 picture or pasted object on this page, not shown here)

- Kd [1]: 580 ± 30 µM
- Kd ([2]; 15N–1H moiety of A74, read-out: [1H,15N]-HSQC–CSP KD, NH of A74): 155 ± 10 µM
- Kd ([2]; range over residues, read-out: [1H,15N]-HSQC–CSP KD range of all residues showing chemical shift perturbation): 90 to 750 µM
SMILES: CC(C)[C@H](NC(=O)[C@H](C)NC(=O)[C@H](CO)NC(=O)[C@@H](NC(=O)[C@@H](N)CCC(N)=O)C(C)C)C(=O)O [QVSAV] (H-QVSAV-OH)
